Reference: article PMC3094704, “S-Petasin, the Main Sesquiterpene of Petasites formosanus, Inhibits Phosphodiesterase Activity and Suppresses Ovalbumin-Induced Airway Hyperresponsiveness” (Evidence-based Complementary and Alternative Medicine : eCAM, 2011)
Where a name gives a salt, the structure may show the parent alone.

Experiments:
PDE3 = test: Inhibition of PDE3 activity and Lineweaver-Burk analysis; assay type: biochemical, guinea pig
Description: Activities of PDE1–5, partially separated from guinea pig lungs and hearts according to the method described by Ko et al., were measured with a two-step procedure according to the method of Thompson and Appleman, using cAMP with [^3H]-cAMP or cGMP with [^3H]-cGMP as substrates. The enzyme pμreparation (25 μL) was incubated for 30 min at 37°C in a total assay volume of […] containing 50 mM Tris-HCl (pH 7.4), 3 mM MgCl2, 1 mM dithiothreitol, 0.05% BSA, 1 μM cAMP with 0.2 μCi [^3H]-cAMP as a substrate alone or in the presence of 0.1 units calmodulin with 10 μM CaCl2 or 5 μM cGMP, and 1 μM cGMP with 0.2 μCi [^3H]-cGMP as another substrate alone or in the presence of 0.1 units calmodulin with 10 μM CaCl2. […] The reagents and homogenate were mixed on ice, and the reaction was initiated by transferring the mixture to a water bath at 37°C. Following a 30-min incubation, the reaction was stopped by transferring the reaction vessel to a bath of boiling water for 3 min. After cooling on ice, 20 μL of a 1 mg/mL solution of C. atrox snake venom was added to the reaction mixture, and the mixture was incubated at 37°C for 10 min. Unreacted [^3H]-cAMP or [^3H]-cGMP was removed by the addition of 500 μL of a 1-in-1 Tris-HCl (40 mM) buffer suspension of Dowex resin (1 × 8-200) with incubation on ice for 30 min. Each tube was then centrifuged for 2 min at 3700 g, and 150 μL of the supernatant was removed for liquid scintillation counting. […] The total protein in each fraction used was assayed according to the method described by Bradford. The PDE activities are shown as nmol/mg/min in the Lineweaver-Burk analysis.

PDE2 = molecular target: T1, PDE2 (Cavia porcellus, UniProt A0A286XUV5); test: Inhibition of PDE2 activity (two-step radioenzymatic assay); assay type: biochemical, guinea pig; conditions: mean ± SEM (n); read-out: IC50 on PDE isozyme 2
T1 sequence (A0A286XUV5 22-936): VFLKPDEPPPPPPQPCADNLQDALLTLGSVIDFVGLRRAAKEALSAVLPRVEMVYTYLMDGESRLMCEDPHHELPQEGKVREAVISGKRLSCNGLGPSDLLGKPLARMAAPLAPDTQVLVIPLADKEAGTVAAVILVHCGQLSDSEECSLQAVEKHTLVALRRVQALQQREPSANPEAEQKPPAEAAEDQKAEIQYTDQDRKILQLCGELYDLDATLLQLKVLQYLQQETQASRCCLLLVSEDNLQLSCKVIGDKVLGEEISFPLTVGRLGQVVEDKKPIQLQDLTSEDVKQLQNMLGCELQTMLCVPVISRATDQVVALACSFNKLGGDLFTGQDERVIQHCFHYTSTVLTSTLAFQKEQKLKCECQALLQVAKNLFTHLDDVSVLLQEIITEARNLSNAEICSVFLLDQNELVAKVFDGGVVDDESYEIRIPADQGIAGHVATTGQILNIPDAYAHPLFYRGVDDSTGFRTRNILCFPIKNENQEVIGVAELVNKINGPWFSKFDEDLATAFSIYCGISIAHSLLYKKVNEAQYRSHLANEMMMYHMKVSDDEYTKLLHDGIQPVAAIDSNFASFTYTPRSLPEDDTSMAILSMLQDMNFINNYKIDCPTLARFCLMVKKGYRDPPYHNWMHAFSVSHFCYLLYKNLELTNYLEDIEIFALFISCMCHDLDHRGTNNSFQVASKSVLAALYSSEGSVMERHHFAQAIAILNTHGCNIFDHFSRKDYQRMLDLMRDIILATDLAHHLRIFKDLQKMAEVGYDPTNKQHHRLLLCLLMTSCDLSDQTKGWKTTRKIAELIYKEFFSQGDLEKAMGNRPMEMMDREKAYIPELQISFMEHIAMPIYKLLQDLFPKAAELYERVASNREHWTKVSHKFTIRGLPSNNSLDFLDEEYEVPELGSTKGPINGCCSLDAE
Description: Activities of PDE1–5, partially separated from guinea pig lungs and hearts according to the method described by Ko et al., were measured with a two-step procedure according to the method of Thompson and Appleman, using cAMP with [^3H]-cAMP or cGMP with [^3H]-cGMP as substrates. The enzyme pμreparation (25 μL) was incubated for 30 min at 37°C in a total assay volume of […] containing 50 mM Tris-HCl (pH 7.4), 3 mM MgCl2, 1 mM dithiothreitol, 0.05% BSA, 1 μM cAMP with 0.2 μCi [^3H]-cAMP as a substrate alone or in the presence of 0.1 units calmodulin with 10 μM CaCl2 or 5 μM cGMP, and 1 μM cGMP with 0.2 μCi [^3H]-cGMP as another substrate alone or in the presence of 0.1 units calmodulin with 10 μM CaCl2. […] The reagents and homogenate were mixed on ice, and the reaction was initiated by transferring the mixture to a water bath at 37°C. Following a 30-min incubation, the reaction was stopped by transferring the reaction vessel to a bath of boiling water for 3 min. After cooling on ice, 20 μL of a 1 mg/mL solution of C. atrox snake venom was added to the reaction mixture, and the mixture was incubated at 37°C for 10 min. Unreacted [^3H]-cAMP or [^3H]-cGMP was removed by the addition of 500 μL of a 1-in-1 Tris-HCl (40 mM) buffer suspension of Dowex resin (1 × 8-200) with incubation on ice for 30 min. […]

PDE4 = test: Inhibition of PDE4 activity and Lineweaver-Burk analysis; assay type: biochemical, guinea pig
Description: Activities of PDE1–5, partially separated from guinea pig lungs and hearts according to the method described by Ko et al., were measured with a two-step procedure according to the method of Thompson and Appleman, using cAMP with [^3H]-cAMP or cGMP with [^3H]-cGMP as substrates. The enzyme pμreparation (25 μL) was incubated for 30 min at 37°C in a total assay volume of […] containing 50 mM Tris-HCl (pH 7.4), 3 mM MgCl2, 1 mM dithiothreitol, 0.05% BSA, 1 μM cAMP with 0.2 μCi [^3H]-cAMP as a substrate alone or in the presence of 0.1 units calmodulin with 10 μM CaCl2 or 5 μM cGMP, and 1 μM cGMP with 0.2 μCi [^3H]-cGMP as another substrate alone or in the presence of 0.1 units calmodulin with 10 μM CaCl2. In tests of enzyme inhibition, the reaction mixture contained 10 μL of vehicle or inhibitors, at various concentrations of S-petasin or selective PDE1–5 inhibitors, such as vinpocetin [22], EHNA [23], milrinone, Ro 20-1724 [25] and zaprinast, as reference drugs. The reagents and homogenate were mixed on ice, and the reaction was initiated by transferring the mixture to a water bath at 37°C. Following a 30-min incubation, the reaction was stopped by transferring the reaction vessel to a bath of boiling water for 3 min. After cooling on ice, 20 μL of a 1 mg/mL solution of C. atrox snake venom was added to the reaction mixture, and the mixture was incubated at 37°C for 10 min. Unreacted [^3H]-cAMP or [^3H]-cGMP was removed by the addition of 500 μL of a 1-in-1 Tris-HCl (40 mM) buffer suspension of Dowex resin (1 × 8-200) with incubation on ice for 30 min. Each tube was then centrifuged for 2 min at 3700 g, and 150 μL of the supernatant was removed for liquid scintillation counting. Less than 10% of the tritiated cyclic nucleotide was hydrolyzed in this assay. The total protein in each fraction used was assayed according to the method described by Bradford. The PDE activities are shown as nmol/mg/min in the Lineweaver-Burk analysis.

[1] = tested on: isolated sensitized guinea pig trachea; test: OVA-induced tracheal contractions and baseline tension in vitro
Description: Male Hartley guinea pigs (500–600 g) were sensitized by intramuscular injections of 0.7 mL of 5% (w/v) OVA in saline on Days 1, 4 and 43, and in adjuvant on Days 25 and 39 into each thigh, according to a method described by Underwood et al. and modified by us. Three days after the last injection, sensitized guinea pigs were sacrificed by cervical dislocation, and their tracheas removed. Each trachea was cut into six segments. Each segment consisted of three cartilage rings. All segments were cut open opposite the trachealis. […] Tissues were suspended in normal Krebs solution under an initial tension of 1.5 g and allowed to equilibrate for at least 1 h with washing at 15-min intervals. After the tissues were precontracted with KCl (60 mM) and washed with normal Krebs solution, OVA (0.1–100 μg/mL) was cumulatively added, and contractions were allowed to reach a steady state at each concentration. […] Therefore, the log concentration-response curves of OVA were constructed in the absence and presence of S-petasin. The tension of the precontraction induced by KCl was set as 100%.

[2] = tested on: high-affinity rolipram binding sites (HARBSs) of guinea pig brain cell membranes; test: Displacement of [3H]-rolipram (PDE4H determination)
Description: When the above-described guinea pigs were sacrificed, the whole brains were removed and homogenized with a glass/Teflon homogenizer (Glas-Col, Terre Haute, IN, USA) in 10 volumes of cold medium (pH 6.5) containing 20 mM Bis-Tris, 2 mM benzamidine, 2 mM EDTA, 50 mM sodium chloride, 0.1 mM PMSF and 1 mM dithiothreitol. At 4°C, the homogenate was centrifuged at 170 g for 5 min to remove connective tissues and blood vessels. The suspended homogenate was then re-centrifuged at 40 000 g for 30 min to separate the cytosolic and particulate portions. The particulate portion was re-suspended in a suspension at a concentration of 400 mg/mL (wet weight/volume), after washing three times with homogenizing buffer. The particulate portion mainly consisted of cell membranes. The binding ability of S-petasin (3–300 μM) or Ro 20-1724 (1–10,000 nM), a reference drug, to high-affinity rolipram binding sites (HARBSs) of the membranes was determined by replacing 2 nM [^3H]-rolipram in a reaction buffer at 30°C for 1 h, according to the method described by previous investigators and modified by us. Briefly, the reaction buffer consisted of 50 mM Tris-HCl and 5 mM MgCl2 (pH 7.5). The total volume of the reaction mixture was 25 μL, consisting of 10 μL of particulate suspension, 10 μL of [^3H]-rolipram and 5 μL of S-petasin or Ro 20-1724. After 1 h, the reaction was terminated by moving the reaction vessel into crushed ice. Then the reaction mixture was transferred onto Whatman GF/B glass-fiber filters, which were soaked in a 0.3% polyethyleneimine solution in a mini-funnel. The reaction mixture was filtered by centrifuging at 90 g for 10 s, and the filtrate was collected into a 1.5 mL Eppendorf tube with a top adapted to the outlet of the mini-funnel. The filters were washed with 300 μL of reaction buffer three times each in the same way, and transferred into 2 mL of cocktail for radiation counting (total binding) using a β-scintillation counter (Beckman, Fullerton, CA, USA). Non-specific binding, which was defined in the presence of 10 μM Ro 20-1724, was subtracted from the total binding to yield the specific binding. The effective concentration (EC50) values of S-petasin and Ro 20-1724, at which a half of [^3H]-rolipram bound onto HARBSs of cell membranes was displaced, were defined as the PDE4H values, and these were related to any adverse effects, such as nausea, vomiting and gastric hypersecretion.

With `Cc1[nH]c(=O)c(C#N)cc1-c1ccncc1` [milrinone, reference compound] the Ki (PDE3; Lineweaver-Burk analysis, cAMP substrate, read-out: Ki on PDE isozyme 3) was 1600 ± 200 nM, the “Mode of inhibition of PDE3 activity” value (PDE3; Lineweaver-Burk analysis, S-petasin 3–30 μM, milrinone 0.3–3 μM) was “competitively inhibited” and the IC50 (PDE3; mean ± SEM (n), read-out: IC50 on PDE isozyme 3) was 1500 ± 200 nM.
In the case of `CCCCCC[C@@H]([C@@H](C)O)n1cnc2c(N)ncnc21` (racemic) [EHNA, erythro-9-(2-hydroxy-3-nonyl)-adenine HCl], the IC50 (PDE2) is reported as 6500 ± 1000 nM.
With `CCCCOc1cc(CC2CNC(=O)N2)ccc1OC` (stereo not drawn) [Ro 20-1724, 4-(3-butoxy-4-methoxybenzyl)-2-imidazolidinone, reference compound] the Ki (PDE4; Lineweaver-Burk analysis, cAMP substrate, read-out: Ki on PDE isozyme 4) was 4200 ± 700 nM, the “Mode of inhibition of PDE4 activity” value (PDE4; Lineweaver-Burk analysis, S-petasin 3–30 μM, Ro 20-1724 1–10 μM) was “competitively inhibited” and the IC50 (PDE4; mean ± SEM (n), read-out: IC50 on PDE isozyme 4 (taken as PDE4L value)) was 6900 ± 600 nM. The “OVA (10 μg/mL)-induced contractions” value ([1]; 30 μM) was “significantly inhibited”, the Baseline tension ([1]; 3–30 μM) was “concentration-dependently and significantly relaxed” and the “OVA (10–100 μg/mL)-induced contractions” value ([1]; 10–30 μM) was “concentration-dependently inhibited”. The EC50 ([2]; HARBSs of guinea pig brain cell membranes) was 95.8 ± 13.6 nM and the “percentage displacement of [3H]-rolipram binding” value ([2]; at the highest concentration (10 000 nM), 2 nM [3H]-rolipram) was 100%±2.1%.
